From patent US8536229B2, “Acetylene derivatives having MGluR 5 antagonistic activity” (Novartis AG, priority 2001, dated 2013)

Columns and labels:
[1] = test system: stress-induced hyperthermia in mice; assay: stress-induced hyperthermia in mice; assay type: in vivo; settings: reduced from 0.92±0.09° C., p<0.001
Procedure: A. Lecci at al., Psychopharmacol. 101, 255-261]. At doses of about 0.1 to about 30 mg/kg p.o., the agents of the invention reverse the stress-induced hyperthermia.

SMILES | melting point [°C] | other results
CCOC(=O)N1CC[C@@H]2[C@H]1CCC[C@@]2(O)C#Cc1ccc(F)cc1 (racemic) [Example 1i, (±)-(3aRS,4SR,7aRS)-4-(4-Fluoro-phenylethynyl)-4-hydroxy-octahydro-indole-1-carboxylic acid ethyl ester] | 115 to 116 | –
CC(=O)N[C@@H]1CCC[C@@](O)(C#Cc2cccc(C)c2)C1 (racemic) [Example 6m, (±)-(1RS,3SR)-N-(3-hydroxy-3-m-tolylethynyl-cyclohexyl)-acetamide] | 152 to 155 | –
CCOC(=O)N[C@@H]1CCC[C@@](O)(C#Cc2cccc(C)c2)C1 (racemic) [Example 6o, (±)-(1RS,3SR)-(3-Hydroxy-3-m-tolylethynyl-cyclohexyl)-carbamic acid ethyl ester] | 106 to 107 | –
CCOC(=O)N[C@@H]1CCC[C@@](O)(C#Cc2cccc(F)c2)C1 (racemic) [Example 6u, (±)-(1RS,3SR)-[3-(3-Fluoro-phenylethynyl)-3-hydroxy-cyclohexyl]-carbamic acid ethyl ester] | 121 to 123 | –
COC(=O)N1CC[C@@H]2[C@H]1CCC[C@@]2(O)C#Cc1cccc(C)c1 [Example 1, (−)-(3aR,4S,7aR)-4-Hydroxy-4-m-tolylethynyl-octahydro-indole-1-carboxylic acid methyl ester] | – | stress-induced hyperthermia ([1]; 0.1 mg/kg p.o.): 0.56±0.06 °C; stress-induced hyperthermia ([1]; 1 mg/kg p.o.): 0.42±0.06 °C; stress-induced hyperthermia ([1]; 10 mg/kg p.o.): 0.18±0.05 °C
CCOC(=O)N1CC[C@@H]2[C@H]1CCC[C@@]2(O)C#Cc1cccc(C)c1 [Example 1a, (−)-(3aR,4S,7aR)-4-Hydroxy-4-m-tolylethynyl-octahydro-indole-1-carboxylic acid ethyl ester] | 118 to 121 | –
Cc1cccc(C#C[C@]2(O)CCC[C@@H]3[C@H]2CCN3C(=O)c2ccco2)c1 [Example 1b, (−)-(3aR,4S,7aR)-Furan-2-yl-(4-hydroxy-4-m-tolylethynyl-octahydro-indol-1-yl)-methanone] | 195.5 to 196.5 | –
